Assay results: patent US11582970B2, “2-aminoimidazole-phenyl derivatives useful for controlling microbial growth” (NORTH CAROLINA STATE UNIVERSITY, priority 2017, dated 2023)
Read-outs that look alike come from different tables or passages of the source.

Columns and labels:
Format in all cases: cell-based
[1] = test system: A. baumannii (Ab) AR# 37; assay: MIC of meropenem in combination with compound, CDC carbapenem resistant strain
Description: (§1) EXAMPLE 2: Six compounds were assessed for their activity in combination with meropenem against carbapenem resistant strains of A. baumannii (Ab), K. pneumoniae (Kp), and E. coli acquired from the Center for Disease Control (CDC). AR #—assigned AR-BANK number from the CDC.

[2] = test system: A. baumannii (Ab) AR# 56; assay: as above
Description: as §1

[3] = test system: E. coli AR# 48; assay: as above
Description: as §1

[4] = test system: A. baumannii (Ab) AR# 83; assay: as above
Description: as §1

[5] = test system: A. baumannii (Ab) AR# 33; assay: as above
Description: as §1

[6] = test system: A. baumannii (Ab) AR# 45; assay: as above
Description: as §1

[7] = test system: A. baumannii (Ab) AR# 52; assay: as above
Description: as §1

[8] = test system: K. pneumoniae (Kp) AR# 41; assay: as above; conditions: 64 μM of 2-amino imidazole compound
Description: as §1

[9] = test system: K. pneumoniae (Kp) AR# 68; assay: as above; conditions: 32 μM of 2-amino imidazole compound
Description: as §1

[10] = test system: A. baumannii (Ab) AR# 88; assay: as above
Description: as §1

[11] = test system: E. coli AR# 55; assay: as above
Description: as §1

[12] = test system: A. baumannii (Ab) AR# 35; assay: as above
Description: as §1

[13] = test system: K. pneumoniae (Kp) AR# 98; assay: as above
Description: as §1

[14] = test system: A. baumannii (Ab) AR# 70; assay: as above
Description: as §1

[15] = test system: A. baumannii (Ab) AR# 63; assay: as above
Description: as §1

[16] = test system: K. pneumoniae (Kp) AR# 40; assay: as above; conditions: 64 μM of 2-amino imidazole compound
Description: as §1

[17] = test system: A. baumannii (Ab) AR# 36; assay: as above
Description: as §1

[18] = test system: A. baumannii ATCC BAA-1605; assay: MIC of carbapenems in presence and absence of 2-aminoimidazole compounds; conditions: Acinetobacter baumannii, no 2-AI compound (None)
Excerpt: (§2) The minimal inhibitory concentration (MIC) values of imipenem (I); meropenem (M) and doripenem (D) in the presence and absence of 2-aminoimidazole compounds are provided in Table 1. The concentration of each compound used in μM in the MIC assay is shown in parentheses.

[19] = test system: A. baumannii AB5075; assay: as above; conditions: Acinetobacter baumannii, no 2-AI compound (None)
Excerpt: as §2

[20] = test system: K. pneumoniae ATCC BAA-2146; assay: as above; conditions: Klebsiella pneumoniae, no 2-AI compound (None)
Excerpt: as §2

[21] = test system: K. pneumoniae ATCC BAA-1705; assay: as above; conditions: Klebsiella pneumoniae, no 2-AI compound (None)
Excerpt: as §2

[22] = 7 μM of 2-amino imidazole compound
[23] = 15 μM of 2-amino imidazole compound
[24] = 32 μM of 2-amino imidazole compound
[25] = 16 μM of 2-amino imidazole compound
[26] = 8 μM of 2-amino imidazole compound

With `Nc1ncc(-c2ccc(NC(=O)Nc3ccc(-c4cnc(N)[nH]4)cc3)cc2)[nH]1` [Compound 93, 1,3-bis(4-(2-amino-1H-imidazol-5-yl)phenyl)urea] the “Minimum Inhibitory Concentration of Meropenem” value [1, 22] was 64 (7) μg/mL, the “Minimum Inhibitory Concentration of Meropenem” value [2, 23] was 16 (15) μg/mL and the “Minimum Inhibitory Concentration of Meropenem” value [3, 24] was 16 (32) μg/mL. For the same molecule, the “Minimum Inhibitory Concentration of Meropenem” value [4, 23] was 64 (15) μg/mL, the “Minimum Inhibitory Concentration of Meropenem” value [5, 22] was 64 (7) μg/mL and the “Minimum Inhibitory Concentration of Meropenem” value [6, 22] was 2 (7) μg/mL. The “Minimum Inhibitory Concentration of Meropenem” value ([7]; 4 μM of 2-amino imidazole compound) was 3 (4) μg/mL, the “Minimum Inhibitory Concentration of Meropenem” value [8] was 8 (64) μg/mL and the “Minimum Inhibitory Concentration of Meropenem” value [9] was 32 (32) μg/mL. For the same molecule, the “Minimum Inhibitory Concentration of Meropenem” value [10, 22] was 64 (7) μg/mL, the “Minimum Inhibitory Concentration of Meropenem” value [11, 25] was 128 (16) μg/mL and the “Minimum Inhibitory Concentration of Meropenem” value [12, 23] was 32 (15) μg/mL. For the same molecule, the “Minimum Inhibitory Concentration of Meropenem” value [13, 24] was 32 (32) μg/mL, the “Minimum Inhibitory Concentration of Meropenem” value [14, 22] was 1 (7) μg/mL and the “Minimum Inhibitory Concentration of Meropenem” value [15, 23] was 8 (15) μg/mL. The “Minimum Inhibitory Concentration of Meropenem” value [16] was 1024 (64) μg/mL and the “Minimum Inhibitory Concentration of Meropenem” value [17, 23] was 16 (15) μg/mL.

`Nc1ncc(-c2ccc(NC(=O)Nc3ccc4c(c3)-c3[nH]c(N)nc3CC4)cc2)[nH]1` [Compound 97, 1-(4-(2-amino-1H-imidazol-5-yl)phenyl)-3-(2-amino-4,5-dihydro-1H-naphtho[1,2-d]imidazol-8-yl)urea] was tested, and the “Minimum Inhibitory Concentration of Meropenem” value [1, 26] was 32 (8) μg/mL, the “Minimum Inhibitory Concentration of Meropenem” value [2, 26] was 2 (8) μg/mL and the “Minimum Inhibitory Concentration of Meropenem” value [3, 25] was 128 (16) μg/mL. The “Minimum Inhibitory Concentration of Meropenem” value [4, 26] was 16 (8) μg/mL, the “Minimum Inhibitory Concentration of Meropenem” value [5, 25] was 4 (16) μg/mL and the “Minimum Inhibitory Concentration of Meropenem” value [6, 26] was 1 (8) μg/mL. The “Minimum Inhibitory Concentration of Meropenem” value ([7]; 2 μM of 2-amino imidazole compound) was 2 (2) μg/mL, the “Minimum Inhibitory Concentration of Meropenem” value [8] was 16 (64) μg/mL and the “Minimum Inhibitory Concentration of Meropenem” value [9] was 64 (32) μg/mL. The “Minimum Inhibitory Concentration of Meropenem” value [10, 25] was 32 (16) μg/mL, the “Minimum Inhibitory Concentration of Meropenem” value [11, 24] was 256 (32) μg/mL and the “Minimum Inhibitory Concentration of Meropenem” value [12, 26] was 2 (8) μg/mL. For the same molecule, the “Minimum Inhibitory Concentration of Meropenem” value [13, 25] was 32 (16) μg/mL, the “Minimum Inhibitory Concentration of Meropenem” value [14, 26] was 0.5 (8) μg/mL and the “Minimum Inhibitory Concentration of Meropenem” value [15, 26] was 8 (8) μg/mL. For the same molecule, the “Minimum Inhibitory Concentration of Meropenem” value [16] was 1024 (64) μg/mL and the “Minimum Inhibitory Concentration of Meropenem” value [17, 26] was 1 (8) μg/mL.

Molecule `C[C@@H](O)[C@H]1C(=O)N2C(C(=O)O)=C(S[C@@H]3CN[C@H](CNS(N)(=O)=O)C3)[C@H](C)[C@H]12` [D, doripenem] has an MIC ([18]; read-out: MIC of doripenem (D)) of 32 µg/mL, an MIC ([19]; read-out: MIC of doripenem (D)) of 32 µg/mL and an MIC ([20]; read-out: MIC of doripenem (D)) of 256 µg/mL. For the same molecule, the MIC ([21]; read-out: MIC of doripenem (D)) was 64 µg/mL.

Work on `C[C@@H](O)[C@H]1C(=O)N2C(C(=O)O)=C(SCCN=CN)C[C@H]12` [I, imipenem] yielded an MIC ([18]; read-out: MIC of imipenem (I)) of 32 µg/mL, an MIC ([19]; read-out: MIC of imipenem (I)) of 32 µg/mL and an MIC ([20]; read-out: MIC of imipenem (I)) of 128 µg/mL. The MIC ([21]; read-out: MIC of imipenem (I)) was 64 µg/mL.
